From publication PMC1976805, “Preclinical pharmacokinetics of benznidazole” (British Journal of Cancer, 1984)
Like-named read-outs stand apart in the source and are kept apart here.

Assay: Penetration into brain and peripheral nerve in dogs
Format: in vivo, dog
Conditions: 25 mg kg-1 oral; for Kp at 4 h / Kp at 1 h / Kp at 2 h / Kp at 3 h: dog, po
Excerpt: Br. J. Cancer (1984), 50, 291-303 Preclinical pharmacokinetics of benznidazole P. Workman', R.A.S. White2, M.I. Walton', L.N. Owen2* & P.R. Twentyman' 1MRC Clinical Oncology and Radiotherapeutics Unit, MRC Centre, Hills Road, Cambridge CB2 2QH, and 2Department of Clinical Veterinary Medicine, University of Cambridge, Madingley Road, Cambridge CB3 OES, UK. […] We have investigated the detailed pharmacokinetics of benznidazole in mice, dogs and sheep to provide a data base for the estimation of doses required for chemosensitization in man. Pharmacokinetic behaviour was linear except at high doses in mice. Absorption was fairly rapid and bioavailability was complete following both i.p. administration in mice and oral administration in dogs. Elimination t4 values were longer than for MISO, being 90 min in mice, 4-5 h in sheep and 9-11 h in dogs. At doses giving linear kinetics, peak whole plasma concentrations per administered mgkg-1 were 0.75 jigml-1 for the i.p. route in mice and 1.8jugmlP' for the oral route in dogs. Though between 39 and 59% of plasma benznidazole was bound to protein, tissue penetration was generally good. Tissue/whole plasma ratios ranged from 59-99% for transplantable mouse tumours and from 14-70% for spontaneous dog neoplasms. Nervous tissue penetration was similar to that in tumours: brain/whole plasma ratios averaged between 61 and 76% in mice and 42% in dogs, while peripheral nerve/whole plasma ratios in dogs averaged 74%. Mean liver/whole plasma ratios were 42% and 71% in BALB/c and C3H/He mouse strains respectively. Only -5% of the administered dose was excreted unchanged in the urine, indicating the likelihood of extensive metabolism. […] Enhancement of CCNU response is likely to require circulating benznidazole concentrations of 10-30 pgml-1 and we predict that these will be obtained with oral doses of 6-20 mgkg- 1 in man. […] This enhancement, or chemosensitization, is usually greater than that seen in dose-limiting normal tissues, resulting in an improved therapeutic index. Because of the relatively high doses of MISO usually required for chemosensitization in mice (see above refs), and also because of its neurotoxicity in man (Dische et al., 1977), we have been interested in finding an improved chemosensitizer. […] The lipophilic ana- logue benznidazole (N-benzyl-(2-nitroimidazolyl) acetamide, Ro 07-1051; Radanil; Roche), the structure of which is shown in Figure 1, was selected for detailed study because of its ability to *Present address: Animal Health Trust, Small Animals Centre, Lanwades Park, Kennett, Newmarket, Suffolk CB8 7PN, UK. Correspondence: P. Workman. […] These findings have been confirmed independently by Siemann et al. (1983). Although benznidazole is used quite widely in South America to treat patients with the trypanosomal infection Chagas' disease or with mucotaneous Leishmaniasis (Barclay et al., 1978; Cerisola et al., 1978; Coura et al., 1978; Fava et al., 1978), apart from our preliminary studies (White et al., 1982) the only published data on its pharmaco- kinetics are for human plasma concentrations measured by polarography (Raaflub & Ziegler, 1979; Raaflub, 1980). Here we describe the pharmacokinetics of benznidazole in the mouse, sheep and dog, as determined by high-performance liquid chromatography (HPLC). […] The Macmillan Press Ltd., 1984 292 P. WORKMAN et al. particularly on plasma and tumour concentrations, have been used as a basis for the estimation of the benznidazole doses required in a Phase I trial of benznidazole plus CCNU, at present ongoing in our Unit. Materials and methods Animals and tumours Adult inbred male BALB/c mice were obtained from OLAC (Southern) Ltd. (Bicester, UK) and adult inbred C3H/He mice of both sexes from OLAC and our own breeding colony. Mice were housed in plastic cages on sawdust bedding made from soft white woods, and allowed laboratory chow and water ad lib. They were used at 20-35 g body wt.

Work on O=C(Cn1ccnc1[N+](=O)[O-])NCc1ccccc1 [benznidazole, N-benzyl-(2-nitroimidazolyl) acetamide] yielded a brain concentration (dog G, 2 h) of 1.5 µg/g, a peripheral nerve concentration (dog G, 2 h) of 3.4 µg/g and a plasma concentration (dog G, 2 h) of 3800 ng/mL. It also gave a brain concentration (dog G, 3 h) of 2.1 µg/g, a plasma concentration (dog G, 3 h) of 4300 ng/mL and a brain concentration (dog G, 4 h) of 1.1 µg/g. The peripheral nerve concentration (dog G, 4 h) was 4.0 µg/g, the plasma concentration (dog G, 4 h) was 4100 ng/mL and the brain concentration (dog H, 1 h) was 11.6 µg/g. It also gave a peripheral nerve concentration (dog H, 1 h) of 14.0 µg/g, a plasma concentration (dog H, 1 h) of 23100 ng/mL and a brain concentration (dog H, 2 h) of 10.0 µg/g. The peripheral nerve concentration (dog H, 2 h) was 15.5 µg/g, the plasma concentration (dog H, 2 h) was 22200 ng/mL and the brain concentration (dog H, 3 h) was 8.5 µg/g. It also gave a peripheral nerve concentration (dog H, 3 h) of 14.7 µg/g, a plasma concentration (dog H, 3 h) of 18700 ng/mL and a brain concentration (dog H, 4 h) of 7.9 µg/g. For the same compound, the peripheral nerve concentration (dog H, 4 h) was 15.6 µg/g, the plasma concentration (dog H, 4 h) was 18500 ng/mL and the Kp at 4 h (brain, 25 mg kg-1, dog H, 4 h, read-out: brain/plasma ratio) was 0.43. The Kp at 1 h (brain/plasma, 25 mg kg-1, dog G, 1 h, read-out: brain/plasma ratio) was 0.35, the Kp at 2 h (brain/plasma, 25 mg kg-1, dog G, 2 h, read-out: brain/plasma ratio) was 0.39 and the Kp at 3 h (brain/plasma, 25 mg kg-1, dog G, 3 h, read-out: brain/plasma ratio) was 0.49. The Kp at 4 h (brain/plasma, 25 mg kg-1, dog G, 4 h, read-out: brain/plasma ratio) was 0.26, the Kp at 1 h (brain/plasma, 25 mg kg-1, dog H, 1 h, read-out: brain/plasma ratio) was 0.5 and the Kp at 2 h (brain/plasma, 25 mg kg-1, dog H, 2 h, read-out: brain/plasma ratio) was 0.45. It also gave a Kp at 3 h (brain/plasma, 25 mg kg-1, dog H, 3 h, read-out: brain/plasma ratio) of 0.45, a Kp at 3 h (peripheral nerve, 25 mg kg-1, dog H, 3 h, read-out: peripheral nerve/plasma ratio) of 0.78 and a Kp at 4 h (peripheral nerve, 25 mg kg-1, dog H, 4 h, read-out: peripheral nerve/plasma ratio) of 0.84. For the same compound, the Kp at 1 h (peripheral nerve/plasma, 25 mg kg-1, dog G, 1 h, read-out: peripheral nerve/plasma ratio) was 0.41, the Kp at 2 h (peripheral nerve/plasma, 25 mg kg-1, dog G, 2 h, read-out: peripheral nerve/plasma ratio) was 0.9 and the Kp at 4 h (peripheral nerve/plasma, 25 mg kg-1, dog G, 4 h, read-out: peripheral nerve/plasma ratio) was 0.96. For the same compound, the Kp at 1 h (peripheral nerve/plasma, 25 mg kg-1, dog H, 1 h, read-out: peripheral nerve/plasma ratio) was 0.6, the Kp at 2 h (peripheral nerve/plasma, 25 mg kg-1, dog H, 2 h, read-out: peripheral nerve/plasma ratio) was 0.7 and the “brain/whole plasma ratio, overall mean (s.e., n=8)” value (two crossbred dogs, 1-4 h) was 42+3%. The “peripheral nerve/whole plasma ratio, mean (s.e., n=7)” value (two crossbred dogs, 1-4 h) was 74+7%.
